Source: patent US4760136A, “Chartreusin derivatives and salts thereof” (Ishihara Sangyo Kaisha, Ltd., priority 1984, dated 1988)
Where a name gives a salt, the structure may show the parent alone. Read-outs that look alike come from different tables or passages of the source.

Experiments:
[1] = Acute toxicity, intravenous (once), ddY mice; assay type: in vivo; settings: mouse, in vivo, formulated per Preparation Example
From the text: In Table 7 are shown acute toxicity values (LD50, mg/kg) in ddY mice in the case of intravenously administering (once) each of the compounds of this invention in the form of preparations shown in the Preparation Examples shown in Table 7.

P-388 leukemia cells = experiment: Antitumor activity: P-388 leukemia cells inoculated intraperitoneally, drug administered intravenously, BDF1 mice; assay type: in vivo; settings: Mus musculus, P388, iv, read-out: T/C (%) of MST; for response vs control in vivo at 20 mg/kg: dose b: 20 mg/kg × 3, i.v. on days 1, 5 and 9; for response vs control in vivo at 10 mg/kg: dose a: 10 mg/kg × 3, i.v. on days 1, 5 and 9
Protocol: Into BDF1 mice were inoculated intraperitoneally P-388 leukemia cells at a rate of 1×10^6 cells/mouse, and each drug to be tested was administered intravenously on the first, fifth and ninth days after the inoculation. […] The drugs were as follows solutions prepared by adding physiological saline to each of compound Nos. 8, 9, 10, 11, 17, 34, 42, 59, 80 and 134; suspensions prepared by dispersing each of compound Nos. 41, 78, 98, 100, 130, 191, 212, 213, 215, 227 and 230 to 232 and a small amount of sodium carboxymethyl cellulose (Na.CMC) in physiological saline, […]

[2] = dose c: 40 mg/kg × 3, i.v. on days 1, 5 and 9, BDF1 mice, P-388 i.p.
[3] = dose f: 80 mg/kg × 3, i.v. on days 1, 5 and 9, BDF1 mice, P-388 i.p.

| Compound | LD50 ([1]; iv) | response vs control in vivo at 40 mg/kg (P-388 leukemia cells; [2]) | response vs control in vivo at 80 mg/kg (P-388 leukemia cells; [3]) | further results |
| --- | --- | --- | --- | --- |
| COC1C(O)C(C)OC(OC2C(Oc3cccc4c(OC(=O)CC(C)NC(=O)C(F)(F)F)c5c(=O)oc6ccc(C)c7c(=O)oc(c34)c5c67)OC(C)C3OC(C)(C)OC32)C1O (stereo not drawn) [Compound No. 51] | ≥ 100 mg/kg | 136% | 207% |  |
| COC1C(O)C(C)OC(OC2C(Oc3cccc4c(OC(=O)CCNC(=O)C(F)(F)F)c5c(=O)oc6ccc(C)c7c(=O)oc(c34)c5c67)OC(C)C3OC(C)(C)OC32)C1O (stereo not drawn) [Compound No. 49, 6-O-(N-Trifluoroacetyl-β-Alanyl)-3',4'-O-Isopropylidene-Chartreusin] | ≥ 150 mg/kg |  | 207% |  |
| COC1C(O)C(C)OC(OC2C(Oc3cccc4c(OC(=O)C(C)C)c5c(=O)oc6ccc(C)c7c(=O)oc(c34)c5c67)OC(C)C3OC(C)(C)OC32)C1O (stereo not drawn) [compound 222] | ≥ 80 mg/kg | 144% | 162% |  |
| COC1C(O)C(C)OC(OC2C(Oc3cccc4c(OC(=O)CCNC(=O)CN)c5c(=O)oc6ccc(C)c7c(=O)oc(c34)c5c67)OC(C)C3OC(c4ccccc4)OC32)C1O (stereo not drawn) [compound 10] | ≥ 40 mg/kg | 197% |  | response vs control in vivo at 20 mg/kg (P-388 leukemia cells; BDF1 mice, P-388 i.p.): 161% |
| COC1C(O)C(C)OC(OC2C(Oc3cccc4c(OC(=O)CCNC(=O)c5ccccc5)c5c(=O)oc6ccc(C)c7c(=O)oc(c34)c5c67)OC(C)C3OC(c4cccc(F)c4)OC32)C1O (stereo not drawn) [Compound No. 47, 6-O-(N-benzoyl-β-alanyl)-3',4'-O-(m-fluorobenzylidene)-chartreusin] | ≥ 80 mg/kg | 150% | 210% |  |
| COC1C(O)C(C)OC(OC2C(Oc3cccc4c(OC(=O)CC(C)C)c5c(=O)oc6ccc(C)c7c(=O)oc(c34)c5c67)OC(C)C3OC(c4cccc(Br)c4)OC32)C1O (stereo not drawn) [Compound No. 163] | ≥ 80 mg/kg | 156% | 227% |  |
| COC1C(O)C(C)OC(OC2C(Oc3cccc4c(OC(=O)CCNC=O)c5c(=O)oc6ccc(C)c7c(=O)oc(c34)c5c67)OC(C)C3OC(c4ccc(Cl)cc4Cl)OC32)C1O (stereo not drawn) [compound 93] | ≥ 80 mg/kg |  | 165% |  |
| COC1C(O)C(C)OC(OC2C(Oc3cccc4c(OC(=O)c5cccc(N(C)C)c5)c5c(=O)oc6ccc(C)c7c(=O)oc(c34)c5c67)OC(C)C3OC(c4cccc(F)c4)OC32)C1O (stereo not drawn) [Compound No. 158, 6-O-(m-Dimethylaminobenzoyl)-3',4'-O-(m-Fluorobenzylidene)-Chartreusin] | ≥ 80 mg/kg | 174% | 205% |  |
| COC1C(O)C(C)OC(OC2C(Oc3cccc4c(OC(=O)CCCCCN)c5c(=O)oc6ccc(C)c7c(=O)oc(c34)c5c67)OC(C)C3OC(C)(C)OC32)C1O (stereo not drawn) [compound 59] | ≥ 100 mg/kg | 146% | 218% |  |
| COC1C(O)C(C)OC(OC2C(Oc3cccc4c(OC(=O)COC(=O)CCCl)c5c(=O)oc6ccc(C)c7c(=O)oc(c34)c5c67)OC(C)C3OC(c4ccccc4)OC32)C1O (stereo not drawn) [Compound No. 149] | ≥ 40 mg/kg |  |  | response vs control in vivo at 20 mg/kg (P-388 leukemia cells; BDF1 mice, P-388 i.p.): 203% |
| COC1C(O)C(C)OC(OC2C(Oc3cccc4c(OC(=O)C5CC5)c5c(=O)oc6ccc(C)c7c(=O)oc(c34)c5c67)OC(C)C3OC(c4ccccc4)OC32)C1O (stereo not drawn) [compound 232] | ≥ 40 mg/kg |  |  | response vs control in vivo at 10 mg/kg (P-388 leukemia cells; BDF1 mice, P-388 i.p.): 146% |
| CCOCCC(=O)Oc1c2cccc(OC3OC(C)C4OC(C)(C)OC4C3OC3OC(C)C(O)C(OC)C3O)c2c2oc(=O)c3c(C)ccc4oc(=O)c1c2c43 (stereo not drawn) [Compound No. 176] | ≥ 80 mg/kg | 155% | 208% |  |
| CO[C@H]1[C@@H](O)[C@@H](C)O[C@H](O[C@H]2[C@H](Oc3cccc4c(OC(=O)C5CC5C)c5c(=O)oc6ccc(C)c7c(=O)oc(c34)c5c67)O[C@H](C)[C@@H]3OC(C)(C)O[C@@H]32)[C@@H]1O (stereo partly drawn) [Compound No. 178] | ≥ 80 mg/kg | 142% | 181% |  |
| COC1C(O)C(C)OC(OC2C(Oc3cccc4c(OC(=O)CCN)c5c(=O)oc6ccc(C)c7c(=O)oc(c34)c5c67)OC(C)C3OC(c4cccc(F)c4)OC32)C1O (stereo not drawn) [Compound No. 16, 6-O-(β-alanyl)-3',4'-O-(m-fluorobenzylidene)-chartreusin phosphate] | ≥ 40 mg/kg | 242% |  | response vs control in vivo at 20 mg/kg (P-388 leukemia cells; BDF1 mice, P-388 i.p.): 164% |
| COC1C(O)C(C)OC(OC2C(Oc3cccc4c(OC(=O)CCNC(=O)C(F)(F)F)c5c(=O)oc6ccc(C)c7c(=O)oc(c34)c5c67)OC(C)C3OC(c4cccc(Br)c4)OC32)C1O (stereo not drawn) [Compound No. 31] | ≥ 80 mg/kg | 171% | 238% |  |
| COC1C(O)C(C)OC(OC2C(Oc3cccc4c(OC(=O)CCNC=O)c5c(=O)oc6ccc(C)c7c(=O)oc(c34)c5c67)OC(C)C3OC(c4cccc(Br)c4)OC32)C1O (stereo not drawn) [Compound No. 54] | ≥ 80 mg/kg | 144% | 208% |  |
| COC1C(O)C(C)OC(OC2C(Oc3cccc4c(OC(=O)CCNC=O)c5c(=O)oc6ccc(C)c7c(=O)oc(c34)c5c67)OC(C)C3OC(c4cccc(C(F)(F)F)c4)OC32)C1O (stereo not drawn) [Compound No. 52] | ≥ 80 mg/kg | 162% | 203% |  |
| COC1C(O)C(C)OC(OC2C(Oc3cccc4c(OC(=O)CCCCCNC(=O)C(F)(F)F)c5c(=O)oc6ccc(C)c7c(=O)oc(c34)c5c67)OC(C)C3OC(c4ccccc4)OC32)C1O (stereo not drawn) [compound 78, 6-O-(N-trifluoroacetyl-6-amino-n-hexanoyl)-3',4'-O-benzylidene-chartreusin] | ≥ 100 mg/kg | 146% | 176% |  |
| CO[C@H]1[C@@H](O)[C@@H](C)O[C@H](O[C@H]2[C@H](Oc3cccc4c(OC(=O)CCCCl)c5c(=O)oc6ccc(C)c7c(=O)oc(c34)c5c67)O[C@H](C)[C@@H]3OC(c4ccccc4)O[C@@H]32)[C@@H]1O (stereo partly drawn) [compound 214] | ≥ 80 mg/kg | 130% | 198% |  |
| COC1C(O)C(C)OC(OC2C(Oc3cccc4c(OC(=O)C(C)CNC(C)C)c5c(=O)oc6ccc(C)c7c(=O)oc(c34)c5c67)OC(C)C3OC(c4ccccc4)OC32)C1O (stereo not drawn) [Compound No. 2, 6-O-(N-Isopropyl-β-Amino-Isobutyryl)-3',4'-O-Benzylidene-Chartreusin Hydrochloride] | ≥ 40 mg/kg | 216% |  | response vs control in vivo at 20 mg/kg (P-388 leukemia cells; BDF1 mice, P-388 i.p.): 184% |
| C/C=C(\C)C(=O)Oc1c2cccc(O[C@@H]3O[C@H](C)[C@@H]4OC(c5ccccc5)O[C@@H]4[C@H]3O[C@H]3O[C@H](C)[C@H](O)[C@H](OC)[C@H]3O)c2c2oc(=O)c3c(C)ccc4oc(=O)c1c2c43 (stereo partly drawn) [compound 215] |  |  |  | LD50 [1]: ≥ 80 mg/kg; response vs control in vivo at 40 mg/kg (P-388 leukemia cells): 131%; response vs control in vivo at 80 mg/kg (P-388 leukemia cells): 158% |
| C=CCCC(=O)Oc1c2cccc(OC3OC(C)C4OC(c5cccc([N+](=O)[O-])c5)OC4C3OC3OC(C)C(O)C(OC)C3O)c2c2oc(=O)c3c(C)ccc4oc(=O)c1c2c43 (stereo not drawn) [Compound No. 160] | ≥ 80 mg/kg | 160% | 218% |  |
| COC1C(O)C(C)OC(OC2C(Oc3cccc4c(OC(=O)C(C)CNC(=O)CN)c5c(=O)oc6ccc(C)c7c(=O)oc(c34)c5c67)OC(C)C3OC(c4ccccc4)OC32)C1O (stereo not drawn) [Compound No. 3] | ≥ 40 mg/kg | 192% |  | response vs control in vivo at 20 mg/kg (P-388 leukemia cells; BDF1 mice, P-388 i.p.): 150% |
| CO[C@H]1[C@@H](O)[C@@H](C)O[C@H](O[C@H]2[C@H](Oc3cccc4c(OC(=O)[C@@H](NC(=O)CNC(=O)CN)C(C)C)c5c(=O)oc6ccc(C)c7c(=O)oc(c34)c5c67)O[C@H](C)[C@@H]3OC(c4ccccc4)O[C@@H]32)[C@@H]1O (stereo partly drawn) [compound 36, 6-O-(glycyl-glycyl-valyl)-3',4'-O-benzylidene-chartreusin phosphate] | ≥ 40 mg/kg |  |  | response vs control in vivo at 10 mg/kg (P-388 leukemia cells; BDF1 mice, P-388 i.p.): 135%; response vs control in vivo at 20 mg/kg (P-388 leukemia cells; BDF1 mice, P-388 i.p.): 157% |
| COC1C(O)C(C)OC(OC2C(Oc3cccc4c(OC(=O)CCNC(=O)CNC(=O)OCc5ccccc5)c5c(=O)oc6ccc(C)c7c(=O)oc(c34)c5c67)OC(C)C3OC(c4ccccc4)OC32)C1O (stereo not drawn) [compound 75] | ≥ 40 mg/kg | 197% |  | response vs control in vivo at 20 mg/kg (P-388 leukemia cells; BDF1 mice, P-388 i.p.): 153% |
| COC1C(O)C(C)OC(OC2C(Oc3cccc4c(OC(=O)C(NC(=O)OCc5ccccc5)C(C)C)c5c(=O)oc6ccc(C)c7c(=O)oc(c34)c5c67)OC(C)C3OC(c4ccccc4)OC32)C1O (stereo not drawn) [compound 106] | ≥ 40 mg/kg |  |  | response vs control in vivo at 20 mg/kg (P-388 leukemia cells; BDF1 mice, P-388 i.p.): 173% |
| COC1C(O)C(C)OC(OC2C(Oc3cccc4c(OC(=O)CCCNC(=O)OCc5ccccc5)c5c(=O)oc6ccc(C)c7c(=O)oc(c34)c5c67)OC(C)C3OC(C)(C)OC32)C1O (stereo not drawn) [compound 109] | ≥ 100 mg/kg |  |  | response vs control in vivo at 60 mg/kg (P-388 leukemia cells; dose e: 60 mg/kg × 3, i.v. on days 1, 5 and 9, BDF1 mice, P-388 i.p.): 145% |
